Assay results from paper PMC4977052, “On the Utility of ToxCast™ and ToxPi as Methods for Identifying New Obesogens” (Environmental Health Perspectives, 2016).
Where “and” joins values, the source holds several entries; their conditions need not be identical. Equal entries are not always repeated. Where two headings read alike, the source gives them in different places.

Tests used:
GAL4-mPPARγ [1] = target: T1, GAL4-mPPARγ (Mus musculus, UniProt P37238); test: GAL4-mPPARγ activation, transient transfection luciferase reporter in COS7 cells; format: cell-based
T1 construct: expressed in transfected cells; host or cells: COS7

PPARγ [2] = conditions: NA = not active, cited from earlier work
3T3-L1 preadipocytes = test: 3T3-L1 adipogenesis assay (lipid accumulation, adipogenic gene expression); format: cell-based; conditions: 0.02-20 μM, 5 days after MDI induction
Procedure: 3T3-L1 cells (ATCC) were maintained in high-glucose DMEM supplemented with 10% fetal bovine serum, 2 mM L-glutamine, 50 IU/mL penicillin, and 50 μg/mL streptomycin. A total of 2 × 10^4 cells per well were seeded in 12-well plates. After 48 hr, cells were exposed to the adipogenic cocktail MDI (500 μM isobutylmethylxanthine, 0.25 nM dexamethasone and 5 μg/mL insulin), 8 μg/mL biotin and 8 μg/mL pantothenate for 2 days. Induction media was removed and cells were exposed to test chemicals during 5 days, replacing the media every 2 days. Rosiglitazone (ROSI) and tributyltin (TBT) were used as positive controls at 100 nM and 50 nM final concentrations, respectively. All ToxCast™ chemicals were tested at 0.02, 0.2, 2, and 20 μM, and DMSO concentration was maintained at 0.1% across all treatments. If the chemical was toxic at 20 μM, we repeated the experiment at 10 μM.
Cells were either fixed in 3.7% formaldehyde in phosphate-buffered saline (PBS) for 30 min at room temperature (RT) for lipid quantitation, or homogenized in TriPure (Roche, Mannheim, Germany) for gene expression analysis. For lipid quantitation, fixed cells were washed twice with PBS and maintained in PBS overnight at 4°C to release residual phenol red. Background of cells were measured prior to staining. Cells were stained with 1 μg/mL Nile red (CAS No. 7385-67-3) (to detect lipid accumulation) and 1 μg/mL Hoechst 33342 (ThermoFisher Scientific) (to detect nuclei as a surrogate for cell number) in PBS for 15 min in the dark at RT and washed twice with PBS. […] Background values of Hoechst and Nile red were subtracted from the RFUs after staining and the ratio RFUNile Red:RFUHoechst was calculated. Data are represented as mean ± SEM. Total RNA was isolated using TriPure (Roche) as recommended by the manufacturer. Reverse transcription and quantitative real-time RT-PCR (QPCR) were performed using Transcriptor RT and SYBR® Green Master Mix (Roche). cDNA was quantitated in a LightCycler® 480 System (Roche Diagnostics, Basel, Switzerland) using primer sets listed in Table S4. Each primer set amplified a single band as determined by gel electrophoresis and melting curve analysis. QPCR data were analyzed using the 2^ΔΔCt method ([Livak and Schmittgen 2001]) relative to ribosomal protein 36b4, normalizing to 0.1% DMSO vehicle. Error bars represent the SEM from four to six biological replicates calculated using standard propagation of error ([Bevington and Robinson 2003]).

PPRE = test system: PPRE; parameters: method as in Knudsen et al. 2011; conditions: ToxCast Phase I 2011 release; NA = not active; ref Knudsen et al. 2011; read-out: ATGC PPRE AC50; cited from earlier work
LXRβ [3] = test system: LXRβ; parameters: method as in Knudsen et al. 2011; conditions: ToxCast Phase I 2011 release; NA = not active; ref Knudsen et al. 2011; read-out: NCGC LXR AC50; cited from earlier work
SREBP = test system: SREBP; parameters: method as in Knudsen et al. 2011; conditions: ToxCast Phase I 2011 release; NA = not active; ref Knudsen et al. 2011; read-out: ATGC SREBP AC50; cited from earlier work
C/EBP = test system: C/EBP; parameters: method as in Knudsen et al. 2011; conditions: ToxCast Phase I 2011 release; NA = not active; ref Knudsen et al. 2011; read-out: ATGC CEBP AC50; cited from earlier work
PPARγ [4] = test system: PPARγ; parameters: method as in Filer et al. 2014; conditions: ref Filer et al. 2014, cited from earlier work; for AC50: PPARγ, NA = not active, read-out: NCGC Antag. AC50, 2014 Release
LXRβ [5] = test system: LXRβ; parameters: method as in Knudsen et al. 2011; conditions: ToxCast Phase I 2011 release; NA = not active; ref Knudsen et al. 2011; read-out: ATGT LXRβ AC50; cited from earlier work
LXRα = test system: LXRα; parameters: method as in Knudsen et al. 2011; conditions: ToxCast Phase I 2011 release; NA = not active; ref Knudsen et al. 2011; read-out: ATGT LXRα AC50; cited from earlier work
COS7 cells = test: Cytotoxicity in transfected COS7 cells measured as decreased β-galactosidase activity; conditions: transfected COS7 cells, 24 hr
Procedure: (§1) pCMX-Gal4, pCMX-Gal4-mPPARγ, and pCMX-Gal4-hRXRα were previously described ([Grün et al. 2006]). Transient transfections were performed in COS7 cells as described ([Chamorro-García et al. 2012]). Briefly, COS7 cells were seeded at 15,000 cells per well in 96-well tissue culture plates in 10% calf bovine serum. The following day, cells were transfected in Opti-MEM at ~ 90% confluency. One microgram of CMX-GAL4 effector plasmid was co-transfected with 5 μg tk-(MH100)4-luciferase reporter and 5 μg of CMX-β-galactosidase transfection control plasmids in Opti-MEM® using Lipofectamine® 2000 reagent (Invitrogen™ Life Technologies, Carlsbad, CA, USA), following the manufacturer’s recommended protocol. All chemicals were solvated in dimethyl sulfoxide (DMSO). After overnight incubation, the medium was replaced with Dulbecco’s Modified Eagle Medium (DMEM; HyClone, Logan, UT, USA), 10% resin charcoal stripped fetal bovine serum (FBS) plus ligands at concentrations indicated in the figure legends for an additional 24 hr. DMSO concentration was maintained at 0.05% across all chemical treatments. Cells were lysed and assayed for luciferase and β-galactosidase activity as previously described ([Forman et al. 1995]). All transfections were performed in triplicate and reproduced in multiple experiments. Data are reported as fold induction or reduction over vehicle ([…]) controls ± SEM (standard error of the mean) using standard propagation of error ([Bevington and Robinson 2003]). […] The EC50, EC10, IC50, and IC10 values from NCGC and ToxCast™ are reported from gain AC50 and AC10 values in the ToxCast™ 2014 release ([Filer et al. 2014]).
(§2) Figure 1 ToxCast™ Chemical Activity on PPARγ. The ability of a graded dose series of ToxCast™ chemicals to (A) activate or (B) antagonize GAL4-mPPARγ was tested in transiently transfected COS7 cells. (A, B) Data points are averages of triplicate transfections (three biological replicates). […] Data are depicted as (A) fold induction or (B) reduction over vehicle (0.05% DMSO) controls ± SEM. (A) ToxCast™ chemicals were tested in 3-fold serial dilutions from 100 μM through 0.137 μM, with the final data point being 0.05% DMSO. Rosiglitazone serves as a positive control activator. (B) ToxCast™ chemicals were tested in 3-fold serial dilutions from 100 μM, in competition with 50 nM rosiglitazone (Rosi). […] (C) EC50, EC10, IC50, and IC10 values calculated from A and B are reported and compared to commercial assays (see Figure S1). Note: ATG, Attagene GAL-PPARγ activation assay; NCGC, GeneBLAzer® agonist (EC values) or antagonist (IC values) assays. Triphenyltin was previously published ([Kanayama et al. 2005]).

Human PPARγ = conditions: PPARγ direct binding, NA = not active, cited from earlier work
GAL4-mPPARγ [6] = target: T1, GAL4-mPPARγ; test: GAL4-mPPARγ antagonism in competition with 50 nM rosiglitazone, transiently transfected COS7 cells; format: cell-based
Procedure: as §1, §2

RXRα = conditions: ToxCast Phase I 2011 release; NA = not active; ref Knudsen et al. 2011; read-out: NCGC RXRα AC50; cited from earlier work
[7] = Cos-7 transient transfection, PPARγ or RXRα activation assays (Table 2)
[8] = ToxCast Phase I 2011 release, ref Knudsen et al. 2011, read-out: ATGT PPARγ AC50
[9] = PPARγ, ref Filer et al. 2014, read-out: ATG Agonist AC50, 2014 Release
[10] = PPARγ, ref Knudsen et al. 2011, read-out: ATG Agonist AC50, 2011 Release
[11] = ref Filer et al. 2014, read-out: NVS Agonist AC50, 2014 Release

T1 sequence (P37238 with tags, fused parts or gaps limits assumed): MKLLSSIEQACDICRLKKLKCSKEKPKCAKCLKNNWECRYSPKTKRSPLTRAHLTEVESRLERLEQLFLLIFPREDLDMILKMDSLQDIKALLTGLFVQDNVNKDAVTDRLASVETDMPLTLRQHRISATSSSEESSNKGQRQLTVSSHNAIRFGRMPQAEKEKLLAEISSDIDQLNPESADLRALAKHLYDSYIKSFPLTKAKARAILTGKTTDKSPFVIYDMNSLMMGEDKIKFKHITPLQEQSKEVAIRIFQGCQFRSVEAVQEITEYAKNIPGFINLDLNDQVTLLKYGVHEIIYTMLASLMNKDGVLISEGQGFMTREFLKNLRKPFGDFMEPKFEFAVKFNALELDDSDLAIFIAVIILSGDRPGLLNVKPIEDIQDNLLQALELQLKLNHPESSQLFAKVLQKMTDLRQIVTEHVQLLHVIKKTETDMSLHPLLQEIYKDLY

Compound	Activation COS7 (result in words), ToxPi chemicals (GAL4-mPPARγ [1]; [7])	AC50 (PPARγ [2]; [8]) [µM]	Adipogenesis 3T3-L1 (result in words) (3T3-L1 preadipocytes)	AC50 (PPRE) [µM]	AC50 (LXRβ [3]) [µM]	AC50 (SREBP) [µM]	AC50 (C/EBP) [µM]	AC50 (PPARγ [2]; [9])	AC50 (PPARγ [2]; [10]) [µM]	AC50 (PPARγ [4]) [µM]	AC50 (LXRβ [5]) [µM]	further results
C=CCC1=C(C)C(OC(=O)C2C(C=C(C)C)C2(C)C)CC1=O (mixture of isomers) [d-cis,trans-Allethrin]	Inactive	36	Negative	36	11.9	48	25	–	–	–	–	–
Cc1nn(C)c(Oc2ccccc2)c1C=NOCc1ccc(C(=O)OC(C)(C)C)cc1 [(Z,E)-Fenpyroximate]	Inactive	–	Negative	0.065	6.9	–	–	2.4 µM	8.6	35.9	8.8	Activation COS7 (result in words), ToxCast PPARγ list (GAL4-mPPARγ [1]; Cos-7 transient transfection, PPARγ activation or antagonism assays (Table 1, Table S6)): Inactive; AC50 (LXRα): 4.3 µM
CCc1cccc(CC)c1N(COC)C(=O)CCl [Alachlor]	–	–	Negative	–	–	–	–	2 µM	3.7	3.2	–	Concentration at which cytotoxicity (decreased β-galactosidase activity) was observed (COS7 cells): 100 µM; AC50 (Human PPARγ; [11]): 24.9 µM; AC50 (Human PPARγ; ref Knudsen et al. 2011, read-out: NVS Agonist AC50, 2011 Release): 43 µM; Activation of GAL4-PPARγ (text) (GAL4-mPPARγ [1]; COS7, 100 μM through 0.137 μM): did not activate PPARγ; PPARγ antagonists: IC10, NCGC (PPARγ [4]; AC10, ToxCast 2014 release): 0.15 µM; IC50 (PPARγ [4]; read-out: PPARγ antagonists: IC50, NCGC, gain AC50, ToxCast 2014 release): 3.19 µM; AC50 (GAL4-mPPARγ [6]; Activation AC50 (PPARγ antagonists), Cos-7 transient transfection, competition with 50 nM rosiglitazone): 4.48 µM; Antagonism of PPARγ (GAL4-mPPARγ [6]; COS7, competition against 50 nM rosiglitazone): weak antagonists; IC50 (GAL4-mPPARγ [6]; COS7, in competition with 50 nM rosiglitazone): 4.48 µM; PPARγ antagonists: IC10, Fig 1B (GAL4-mPPARγ [6]; COS7, in competition with 50 nM rosiglitazone, computed from IC50): 0.78 µM; Activation COS7 (result in words): PPARγ antagonist (GAL4-mPPARγ [6]; Cos-7 transient transfection, competition with 50 nM rosiglitazone): PPARγ antagonist
Cc1ccc(-c2c(Cl)nc(C#N)n2S(=O)(=O)N(C)C)cc1 [Cyazofamid]	–	–	Negative	12	–	–	8.7	10.1 µM and 9.4 µM	11	32.3	13	AC50 (Human PPARγ; [11]): 9.6 µM; Activation COS7 (result in words), ToxCast PPARγ list (GAL4-mPPARγ [1]): Inactive; Activation COS7 (result in words), ToxPi chemicals (GAL4-mPPARγ [1]): Inactive; AC50 (LXRα): 11 µM
C[Si](Cn1cncn1)(c1ccc(F)cc1)c1ccc(F)cc1 [Flusilazole]	Inactive	51	Positive	46	–	20	–	–	–	–	–	–
O=C(Nc1ccccc1)Nc1ccnc(Cl)c1 [Forchlorfenuron]	Inactive	46	Positive	26	–	–	40	–	–	–	37	–
C=CCOC(Cn1ccnc1)c1ccc(Cl)cc1Cl (centres unmarked) [Imazalil]	Inactive	73	Negative	–	–	–	–	–	–	–	–	AC50 (RXRα): 3.2 µM
C#CCC1=C(C)C(OC(=O)C2C(C=C(C)C)C2(C)C)CC1=O (centres unmarked) [Prallethrin]	–	44	Negative	8.4	16.7	33	29	–	–	–	–	Activation COS7 (result in words), ToxPi chemicals (GAL4-mPPARγ [1]): Inactive
